Assay results from US10925876B2, “Methods for using triazolo-pyrazinyl soluble guanylate cyclase activators in fibrotic disorders” (Merck Sharp & Dohme Corp., priority 2016, dated 2021).

molecular target: T1, sGC α1/β1 heterodimer (Homo sapiens, UniProt Q02108+Q02153); test: Cell-Based sGC Functional Assay (CASA Assay), cGMP generation in CHO-K1/sGC cells; settings: maximum cGMP production of Compound A set to 100% activation, read-out: % Act. (percent activation relative to Compound A)
T1 construct: expressed in transfected cells
T1 sequence (Q02108 1-690): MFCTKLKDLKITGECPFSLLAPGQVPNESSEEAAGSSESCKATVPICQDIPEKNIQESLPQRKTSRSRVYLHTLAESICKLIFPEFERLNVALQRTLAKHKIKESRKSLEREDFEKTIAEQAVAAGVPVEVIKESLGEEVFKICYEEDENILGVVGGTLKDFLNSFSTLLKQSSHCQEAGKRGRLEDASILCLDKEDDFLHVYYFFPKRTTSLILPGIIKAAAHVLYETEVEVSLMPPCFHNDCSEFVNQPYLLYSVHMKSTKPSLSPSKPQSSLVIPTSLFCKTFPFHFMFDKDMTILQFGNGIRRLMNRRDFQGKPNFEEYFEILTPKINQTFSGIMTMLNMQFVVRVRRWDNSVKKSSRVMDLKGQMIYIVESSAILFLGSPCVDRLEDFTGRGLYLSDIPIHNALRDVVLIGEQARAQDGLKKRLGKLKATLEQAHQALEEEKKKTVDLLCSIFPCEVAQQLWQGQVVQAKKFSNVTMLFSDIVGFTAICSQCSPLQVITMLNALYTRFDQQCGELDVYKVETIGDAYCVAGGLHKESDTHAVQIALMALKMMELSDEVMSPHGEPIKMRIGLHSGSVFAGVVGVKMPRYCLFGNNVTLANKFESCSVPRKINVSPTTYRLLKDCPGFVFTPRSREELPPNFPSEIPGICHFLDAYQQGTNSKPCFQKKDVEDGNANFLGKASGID
T1 sequence (Q02153 1-619): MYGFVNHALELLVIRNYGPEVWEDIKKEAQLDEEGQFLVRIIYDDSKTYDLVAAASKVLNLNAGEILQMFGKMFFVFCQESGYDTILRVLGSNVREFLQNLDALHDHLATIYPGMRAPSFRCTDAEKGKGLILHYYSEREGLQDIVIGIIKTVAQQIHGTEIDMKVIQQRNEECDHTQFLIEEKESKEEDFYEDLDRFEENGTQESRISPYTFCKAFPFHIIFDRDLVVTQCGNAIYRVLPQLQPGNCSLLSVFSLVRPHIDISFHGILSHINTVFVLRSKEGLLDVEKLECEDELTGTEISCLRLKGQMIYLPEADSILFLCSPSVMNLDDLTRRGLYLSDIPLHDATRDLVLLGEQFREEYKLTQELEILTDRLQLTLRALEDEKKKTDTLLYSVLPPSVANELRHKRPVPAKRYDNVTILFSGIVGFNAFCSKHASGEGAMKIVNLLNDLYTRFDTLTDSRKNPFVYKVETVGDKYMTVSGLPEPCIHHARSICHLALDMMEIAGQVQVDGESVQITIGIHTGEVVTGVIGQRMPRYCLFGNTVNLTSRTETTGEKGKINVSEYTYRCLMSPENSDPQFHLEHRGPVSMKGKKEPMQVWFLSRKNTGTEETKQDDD
From the text: sGC is a heme-containing enzyme that converts GTP to secondary messenger cGMP. Increases in cGMP levels affect several physiological processes including vasorelaxation through multiple downstream pathways. […] Heme-dependent activators (HDAs) preferentially activate sGC containing a ferrous heme group. To determine the effect of sGC activators on enzyme activity, the CASA assay was developed to monitor the generation of cGMP in a cell line that stably expresses the heterodimeric sGC protein.
A CHO-K1 cell line stably expressing the sGC α1/β1 heterodimer was generated using a standard transfection protocol. CHO-K1 cells were transfected with plasmids pIREShyghsGCα1 and pIRESneo-hsGCβ1 simultaneously using FUGENE reagent. Clones that stably express both subunits were selected with hygromycin and neomycin for ˜2 weeks. Clone #7 was chosen for the assay and was designated CHO-K1/sGC. CHO-K1/sGC cells were maintained in F-K12 medium containing 10% heat-inactivated Fetal Bovine Serum (FBS), 100 μg/mL penicillin/streptomycin, 0.5 mg/mL hygromycin and 0.25 mg/mL G418. The cells were then cryopreserved in LN2. On the day of the assay, cells thawed and resuspended in EBSS Assay Buffer (Sigma, E3024) supplemented with 5 mM MgCl2, 10 mM HEPES (4-(2-hydroxyethyl)piperazine-1-ethanesulfonic acid) and 0.05% BSA (bovine serum albumin) (EAB) and cell density was then adjusted to 4×10^5/mL with EAB. IBMX (3-isobutyl-1-methylxanthin, 0.5 mM) was added to inhibit degradation of cGMP. Compounds were diluted from DMSO stock solutions and added to the assay at a final DMSO concentration of 2.5%. Cells were incubated with compounds in the presence and absence of 1 μM of Diethylenetriamine/nitric oxide adduct (DETA-NO; Sigma, 17018) for 1 hr at 37° C. At the end of the incubation period, the reaction was terminated and the cells were lysed with the detection reagents from Cisbio Kits. The level of intracellular cGMP was determined using an HTRF-based assay kit (CisBio, 62GM2PEC), which detects the displacement of a fluorescence labeled cGMP from its specific antibody. The cGMP produced by test compounds was directly compared to the maximum cGMP production (this value was set to equal 100% activation.) of the published sGC-HDA Compound A:
[drawing 298] (Example 1 in WO 2010/065275, published Jun. 10, 2010). The test compounds' activities were then expressed as a percentage of Compound A, the standard in every experiment. This percent activation was calculated either in the presence or absence of DETA-NO which was then plotted. IP and maximum fold induction was derived using ADA analysis software for 4P fit.

Row | Emax [%] | SMILES
1 | 77 | CC(F)(F)c1ccc(C2(C)C(=O)Nc3nc(-c4cn5ncnc5c(CCC(F)(F)C(F)(F)F)n4)nc(N)c32)cn1 (racemic) [Example 16B, 4-amino-5-(6-(1,1-difluoroethyl)pyridin-3-yl)-5-methyl-2-(8-(3,3,4,4,4-pentafluorobutyl)-[1,2,4]triazolo[1,5-a]pyrazin-6-yl)-5H-pyrrolo[2,3-d]pyrimidin-6(7H)-one]
2 | 99 | Cc1cnc(C2(C3CC3)C(=O)Nc3nc(-c4cn5ncnc5c(CCC(F)(F)C(F)(F)F)n4)nc(N)c32)cn1 (racemic) [Example 21B, 4-amino-5-cyclopropyl-5-(5-methylpyrazin-2-yl)-2-(8-(3,3,4,4,4-pentafluorobutyl)-[1,2,4]triazolo[1,5-a]pyrazin-6-yl)-5H-pyrrolo[2,3-d]pyrimidin-6(7H)-one]
3 | 156 | CC(F)(F)c1ccc(C2(C)C(=O)Nc3nc(-c4cn5ncnc5c(CCCC(F)(F)F)n4)nc(N)c32)cn1 (racemic) [Example 45B, 4-amino-5-(6-(1,1-difluoroethyl)pyridin-3-yl)-5-methyl-2-(8-(4,4,4-trifluorobutyl)-[1,2,4]triazolo[1,5-a]pyrazin-6-yl)-5H-pyrrolo[2,3-d]pyrimidin-6(7H)-one]
4 | 114 | Cc1ccc(C2(C3CC3)C(=O)Nc3nc(-c4cn5ncnc5c(CCCC(F)(F)F)n4)nc(N)c32)nc1 (racemic) [Example 47B, 4-amino-5-cyclopropyl-5-(5-methylpyridin-2-yl)-2-(8-(4,4,4-trifluorobutyl)-[1,2,4]triazolo[1,5-a]pyrazin-6-yl)-5H-pyrrolo[2,3-d]pyrimidin-6(7H)-one]
5 | 127 | Cc1nc(C2(C)C(=O)Nc3nc(-c4cn5ncnc5c(CCCC(F)(F)F)n4)nc(N)c32)ccc1C(F)(F)F (racemic) [Example 49B, 4-amino-5-methyl-5-(6-methyl-5-(trifluoromethyl)pyridin-2-yl)-2-(8-(4,4,4-trifluorobutyl)-[1,2,4]triazolo[1,5-a]pyrazin-6-yl)-5H-pyrrolo[2,3-d]pyrimidin-6(7H)-one]
6 | 144 | CC1(c2ncc(C(F)(F)F)cn2)C(=O)Nc2nc(-c3cn4ncnc4c(CCCC(F)(F)F)n3)nc(N)c21 (racemic) [Example 51B, 4-amino-5-methyl-2-(8-(4,4,4-trifluorobutyl)-[1,2,4]triazolo[1,5-a]pyrazin-6-yl)-5-(5-(trifluoromethyl)pyrimidin-2-yl)-5H-pyrrolo[2,3-d]pyrimidin-6(7H)-one]
7 | 82 | CCCCc1nc(-c2nc(N)c3c(n2)NC(=O)C3(c2ccc(C)cn2)C2CC2)cn2ncnc12 (racemic) [Example 72B, 4-amino-2-(8-butyl-[1,2,4]triazolo[1,5-a]pyrazin-6-yl)-5-cyclopropyl-5-(5-methylpyridin-2-yl)-5H-pyrrolo[2,3-d]pyrimidin-6(7H)-one]
8 | 106 | Cc1nnc(C2(C)C(=O)Nc3nc(-c4cn5ncnc5c(CCC(F)(F)C(F)(F)F)n4)nc(N)c32)o1 (single isomer, unassigned) [Example 97B, 4-Amino-5-methyl-5-(5-methyl-1,3,4-oxadiazol-2-yl)-2-(8-(3,3,4,4,4-pentafluorobutyl)-[1,2,4]triazolo[1,5-a]pyrazin-6-yl)-5H-pyrrolo[2,3-d]pyrimidin-6(7H)-one]
9 | 97 | Nc1nc(-c2cn3ncnc3c(CCCC(F)(F)F)n2)nc2c1C(c1ncc(C(F)(F)F)cn1)(C1CC1)C(=O)N2 (single isomer, unassigned) [Example 180B, 4-amino-5-cyclopropyl-2-(8-(4,4,4-trifluorobutyl)-[1,2,4]triazolo[1,5-a]pyrazin-6-yl)-5-(5-(trifluoromethyl)pyrimidin-2-yl)-5,7-dihydro-6H-pyrrolo[2,3-d]pyrimidin-6-one]
10 | 147 | CC1(c2ccc(Cl)c(F)c2)C(=O)Nc2nc(-c3cn4ncnc4c(CCC(F)(F)C(F)(F)F)n3)nc(N)c21 (stereo not shown) [Example 5B, 4-amino-5-(4-chloro-3-fluorophenyl)-5-methyl-2-(8-(3,3,4,4,4-pentafluorobutyl)-[1,2,4]triazolo[1,5-a]pyrazin-6-yl)-5H-pyrrolo[2,3-d]pyrimidin-6(7H)-one]
11 | 140 | Nc1nc(-c2cn3ncnc3c(CCC(F)(F)C(F)(F)F)n2)nc2c1C(c1ccc(F)c(F)c1)(C1CC1)C(=O)N2 (stereo not shown) [Example 6A, 4-amino-5-cyclopropyl-5-(3,4-difluorophenyl)-2-(8-(3,3,4,4,4-pentafluorobutyl)-[1,2,4]triazolo[1,5-a]pyrazin-6-yl)-5H-pyrrolo[2,3-d]pyrimidin-6(7H)-one]
12 | 137 | CC1(c2ccc(Cl)cc2)C(=O)Nc2nc(-c3cn4ncnc4c(CCC(F)(F)C(F)(F)F)n3)nc(N)c21 (stereo not shown) [Example 10A, 4-amino-5-(4-chlorophenyl)-5-methyl-2-(8-(3,3,4,4,4-pentafluorobutyl)-[1,2,4]triazolo[1,5-a]pyrazin-6-yl)-5H-pyrrolo[2,3-d]pyrimidin-6(7H)-one]
13 | 90 | CC1(c2cccc(F)c2)C(=O)Nc2nc(-c3cn4ncnc4c(CCC(F)(F)C(F)(F)F)n3)nc(N)c21 (stereo not shown) [Example 14B, 4-amino-5-(3-fluorophenyl)-5-methyl-2-(8-(3,3,4,4,4-pentafluorobutyl)-[1,2,4]triazolo[1,5-a]pyrazin-6-yl)-5H-pyrrolo[2,3-d]pyrimidin-6(7H)-one]
14 | 139 | Nc1nc(-c2cn3ncnc3c(CCC(F)(F)C(F)(F)F)n2)nc2c1C(c1ccc(C(F)(F)F)cn1)(C1CC1)C(=O)N2 (stereo not shown) [Example 15A, 4-amino-5-cyclopropyl-2-(8-(3,3,4,4,4-pentafluorobutyl)-[1,2,4]triazolo[1,5-a]pyrazin-6-yl)-5-(5-(trifluoromethyl)pyridin-2-yl)-5H-pyrrolo[2,3-d]pyrimidin-6(7H)-one]
15 | 71 | Cc1ccc(C2(C)C(=O)Nc3nc(-c4cn5ncnc5c(CCC(F)(F)C(F)(F)F)n4)nc(N)c32)nc1 (stereo not shown) [Example 19B, 4-amino-5-methyl-5-(5-methylpyridin-2-yl)-2-(8-(3,3,4,4,4-pentafluorobutyl)-[1,2,4]triazolo[1,5-a]pyrazin-6-yl)-5H-pyrrolo[2,3-d]pyrimidin-6(7H)-one]
16 | 130 | CC1(c2ccc(F)cn2)C(=O)Nc2nc(-c3cn4ncnc4c(CCCC(F)(F)F)n3)nc(N)c21 (stereo not shown) [Example 22B, 4-amino-5-(5-fluoropyridin-2-yl)-5-methyl-2-(8-(4,4,4-trifluorobutyl)-[1,2,4]triazolo[1,5-a]pyrazin-6-yl)-5H-pyrrolo[2,3-d]pyrimidin-6(7H)-one]
